Laboratory results published in patent US8080237B2, “Use of tellurium compounds for protection from ultra-violet radiation” (priority 2005, dated 2011).
Where two headings read alike, the source gives them in different places.

Assays:
interferon (IFN) [1] = conditions: mice; J. Natl. Cancer Inst. 88(18):1276-84, 1996; cited from earlier work
IL-10 = conditions: Cell Immunol. 176(2):180-5, 1997; J. Natl. Cancer Inst. 88(18):1276-84, 1996; cited from earlier work
rats = assay: Toxicity tests (LD50) in rats; assay type: in vivo; conditions: intravenous and intramuscular administration
interferon (IFN) [2] = conditions: humans; Nat. Immun. Cell Growth Regul. 9(3):182-90, 1990; Immunology 70(4):473-7, 1990; cited from earlier work
[3] = test system: IL-10 gene expression in epidermal cells; assay: RT-PCR for IL-10 transcripts in epidermal cells from suction blisters after in vivo UVB irradiation of volunteers' forearms; design: species or system human; conditions: 3% AS101 in petroleum jelly U.S.P., topical on forearm before UVB; blisters 24 h after UVB exposure; compared with UVB alone; G3PDH as control transcript
Description: In normal volunteers, suction blisters were induced by vacuum and heat on normal skin, or on UVB-irradiated skin of volar forearms 24 h after exposure. Single cell suspensions of epidermal cells were prepared by limited trypsinization of the blister roof. Briefly, epidermal sheets were washed in PBS (Biofluids. Roekville. MD) and floated in 0.5% trypsin (United Stares Biochemical Corp. Cleveland. OH) for 45 min al 37° C., transferred to HBSS (Biofluids) containing 0.05 DNase (Sigma Chemical Co. SI. Louis. MO) and 10% heat-inactivated pooled human AB^+ serum (Sigma Chemical Co.) and disaggregated by repeated aspirations and expulsions through a syringe. […]
UVB irradiation in vivo was performed with 4 FS20 fluorescent lamps (Sylvania. Springfield. Va.) that emit wavelengths between 280 and 320 nm with a peak at 313 nm. Light intensity was determined using an IL-770 Germicidal-Erythemal radiometer (international Light Inc. Newburyport. Me.) equipped with a sensor and a 313-nm filter. […]
The frozen pellets of epidermal cells were dissolved by repeated pipetting 800 μl of lysis bufer and transferred to RNase-free Eppendorf tubes containing 500 μg of superparamagnetic polystyrene Dynaheads Oligo(dT)25 (Dynal. Great Neck. N.Y.). […] The concentration of mRNA was measured on a Beckman DU-64 spectrophotometer employing a 5 μl Ultra microcell. […]

Cl[TeH]1(Cl)(Cl)OCCO1.N [AS101, ammonium trichloro(dioxyethylene-O,O′)tellurate]
activation of interferon (IFN) (interferon (IFN) [1]): potent activator of interferon
effect on IL-10 at the m-RNA level (IL-10): inhibit IL-10 at the m-RNA level
LD50 relative to the immunologically effective dose (rats): 500-1000 folds
activation of interferon (IFN) (interferon (IFN) [2]): potent activator of interferon
IL-10 transcription in epidermal cells after UVB (RT-PCR, FIG. 1) [3]: significant decrease of IL-10
